{"source": "patent US20020169111A1", "about": "“Reversal of multidrug resistance in human colon carcinoma cells” (American Cyanamid Comany, priority 1998, published 2002)", "key": {"S1-B1-20 cells": {"test_system": "S1-B1-20 cells", "assay": "Reversal of resistance in P-gp expressing cells, alone or with 21 μM bisantrene", "format": "cell-based, human", "design": "Difference Score: unit not given here", "conditions": "for Per Cent Survival with 21 μM bisantrene / Per Cent Survival Alone / Difference Score: S1-B1-20 cells; for Difference Score: survival alone minus survival with 21 μM bisantrene", "protocol": "To determine the specificity of FTC for non P-gp multidrug resistance, FTC was tested on S1-B1-20 cells which were selected for resistance to bisantrene and which express high levels of P-gp (Table 9)(Zhang, et al, Oncol. Res. 6291-301 (1994)). […] The 21 μM concentration of bisantrene is not inhibitory to the growth of the cells. Values shown are mean ± standard deviation from triplicate test wells."}, "S1-M1-3.2 cells": {"test_system": "S1-M1-3.2 cells", "conditions": "for Per Cent Survival with 3.2 μM mitoxantrone / Per Cent Survival Alone / Difference Score: S1-M1-3.2 cells; for Per Cent Survival Alone: 3 days; for Difference Score: survival alone minus survival with 3.2 μM mitoxantrone", "protocol": "One of the first reported molecules with reversing activity was verapamil, a calcium channel blocker. […] Cells were plated into 96-well dishes (100 μl/well) in growth medium supplemented with 5% FBS. […] Reversal agents were tested from 0.1-80 μM (triplicate points per dose). In parallel wells, cells were grown in the presence of the reversal agent alone.\nThe Difference Score is the difference in the percentage of cells surviving when the drug was given alone minus the percentage of cells surviving when the drug was given along with the antitumor agent.\nCell survival was estimated using the Sulforhodamine (SRB) assay."}, "P-gp expressing cells": {"test_system": "P-gp expressing cells", "conditions": "P-gp reversal; cited from earlier work"}}, "note": "Where two headings read alike, the source gives them in different places."}
{"molecule": "COc1ccc(C(C#N)(CCCCCN2CCc3cc(OC)c(OC)cc3C2)Sc2ccc(C)cc2)cc1OC", "note": "(stereo not drawn) [α-(3,4-dimethoxyphenyl)-3,4-dihydro-6,7-dimethoxy-α-[(4-methylphenyl)thio]-2(1H)-isoquinolineheptanenitrile, reference compound]", "values": [{"measurement": "Per Cent Survival with 21 μM bisantrene", "setting": "S1-B1-20 cells; drug 0.1 μM", "result": "92 ± 1", "unit": "Per Cent"}, {"measurement": "Per Cent Survival Alone", "setting": "S1-B1-20 cells; drug 0.1 μM alone", "result": "99 ± 4", "unit": "Per Cent"}, {"measurement": "Difference Score", "setting": "S1-B1-20 cells; drug 0.1 μM", "result": 7}, {"measurement": "Per Cent Survival with 21 μM bisantrene", "setting": "S1-B1-20 cells; drug 0.5 μM", "result": "10 ± 0", "unit": "Per Cent"}, {"measurement": "Per Cent Survival Alone", "setting": "S1-B1-20 cells; drug 0.5 μM alone", "result": "97 ± 1", "unit": "Per Cent"}, {"measurement": "Difference Score", "setting": "S1-B1-20 cells; drug 0.5 μM", "result": 87}, {"measurement": "Per Cent Survival with 21 μM bisantrene", "setting": "S1-B1-20 cells; drug 1 μM", "result": "4 ± 0", "unit": "Per Cent"}, {"measurement": "Per Cent Survival Alone", "setting": "S1-B1-20 cells; drug 1 μM alone", "result": "94 ± 2", "unit": "Per Cent"}, {"measurement": "Difference Score", "setting": "S1-B1-20 cells; drug 1 μM", "result": 90}, {"measurement": "Per Cent Survival with 21 μM bisantrene", "setting": "S1-B1-20 cells; drug 5 μM", "result": "4 ± 0", "unit": "Per Cent"}, {"measurement": "Per Cent Survival Alone", "setting": "S1-B1-20 cells; drug 5 μM alone", "result": "90 ± 1", "unit": "Per Cent"}, {"measurement": "Difference Score", "setting": "S1-B1-20 cells; drug 5 μM", "result": 86}, {"measurement": "Per Cent Survival with 21 μM bisantrene", "setting": "S1-B1-20 cells; drug 10 μM", "result": "4 ± 0", "unit": "Per Cent"}, {"measurement": "Per Cent Survival Alone", "setting": "S1-B1-20 cells; drug 10 μM alone", "result": "50 ± 1", "unit": "Per Cent"}, {"measurement": "Difference Score", "setting": "S1-B1-20 cells; drug 10 μM", "result": 46}, {"measurement": "Per Cent Survival with 21 μM bisantrene", "setting": "S1-B1-20 cells; drug 20 μM", "result": "4 ± 0", "unit": "Per Cent"}, {"measurement": "Per Cent Survival Alone", "setting": "S1-B1-20 cells; drug 20 μM alone", "result": "14 ± 1", "unit": "Per Cent"}, {"measurement": "Difference Score", "setting": "S1-B1-20 cells; drug 20 μM", "result": 10}, {"measurement": "Per Cent Survival with 21 μM bisantrene", "setting": "S1-B1-20 cells; drug 40 μM", "result": "4 ± 0", "unit": "Per Cent"}, {"measurement": "Per Cent Survival Alone", "setting": "S1-B1-20 cells; drug 40 μM alone", "result": "4 ± 0", "unit": "Per Cent"}, {"measurement": "Difference Score", "setting": "S1-B1-20 cells; drug 40 μM", "result": 0}, {"measurement": "Per Cent Survival with 21 μM bisantrene", "setting": "S1-B1-20 cells; drug 80 μM", "result": "4 ± 0", "unit": "Per Cent"}, {"measurement": "Per Cent Survival Alone", "setting": "S1-B1-20 cells; drug 80 μM alone", "result": "4 ± 0", "unit": "Per Cent"}, {"measurement": "Difference Score", "setting": "S1-B1-20 cells; drug 80 μM", "result": 0}, {"measurement": "reversal of resistance in P-gp positive S1-B1-20 cells (in words)", "setting": "S1-B1-20 cells; bisantrene-selected", "result": "reversible"}, {"measurement": "Per Cent Survival with 3.2 μM mitoxantrone", "setting": "S1-M1-3.2 cells; drug 0.1 μM", "result": "98 ± 2", "unit": "Per Cent"}, {"measurement": "Per Cent Survival Alone", "setting": "S1-M1-3.2 cells; drug 0.1 μM alone", "result": "98 ± 2", "unit": "Per Cent"}, {"measurement": "Difference Score", "setting": "S1-M1-3.2 cells; drug 0.1 μM", "result": 0}, {"measurement": "Per Cent Survival with 3.2 μM mitoxantrone", "setting": "S1-M1-3.2 cells; drug 0.5 μM", "result": "98 ± 0", "unit": "Per Cent"}, {"measurement": "Per Cent Survival Alone", "setting": "S1-M1-3.2 cells; drug 0.5 μM alone", "result": "100 ± 0", "unit": "Per Cent"}, {"measurement": "Difference Score", "setting": "S1-M1-3.2 cells; drug 0.5 μM", "result": 2}, {"measurement": "Per Cent Survival with 3.2 μM mitoxantrone", "setting": "S1-M1-3.2 cells; drug 1 μM", "result": "99 ± 2", "unit": "Per Cent"}, {"measurement": "Per Cent Survival Alone", "setting": "S1-M1-3.2 cells; drug 1 μM alone", "result": "101 ± 1", "unit": "Per Cent"}, {"measurement": "Difference Score", "setting": "S1-M1-3.2 cells; drug 1 μM", "result": 2}, {"measurement": "Per Cent Survival with 3.2 μM mitoxantrone", "setting": "S1-M1-3.2 cells; drug 5 μM", "result": "63 ± 8", "unit": "Per Cent"}, {"measurement": "Per Cent Survival Alone", "setting": "S1-M1-3.2 cells; drug 5 μM alone", "result": "78 ± 8", "unit": "Per Cent"}, {"measurement": "Difference Score", "setting": "S1-M1-3.2 cells; drug 5 μM", "result": 15}, {"measurement": "Per Cent Survival with 3.2 μM mitoxantrone", "setting": "S1-M1-3.2 cells; drug 10 μM", "result": "36 ± 11", "unit": "Per Cent"}, {"measurement": "Per Cent Survival Alone", "setting": "S1-M1-3.2 cells; drug 10 μM alone", "result": "39 ± 18", "unit": "Per Cent"}, {"measurement": "Difference Score", "setting": "S1-M1-3.2 cells; drug 10 μM", "result": 3}, {"measurement": "Per Cent Survival with 3.2 μM mitoxantrone", "setting": "S1-M1-3.2 cells; drug 20 μM", "result": "21 ± 10", "unit": "Per Cent"}, {"measurement": "Per Cent Survival Alone", "setting": "S1-M1-3.2 cells; drug 20 μM alone", "result": "21 ± 13", "unit": "Per Cent"}, {"measurement": "Difference Score", "setting": "S1-M1-3.2 cells; drug 20 μM", "result": 0}, {"measurement": "Per Cent Survival with 3.2 μM mitoxantrone", "setting": "S1-M1-3.2 cells; drug 40 μM", "result": "16 ± 4", "unit": "Per Cent"}, {"measurement": "Per Cent Survival Alone", "setting": "S1-M1-3.2 cells; drug 40 μM alone", "result": "16 ± 5", "unit": "Per Cent"}, {"measurement": "Difference Score", "setting": "S1-M1-3.2 cells; drug 40 μM", "result": 0}, {"measurement": "Per Cent Survival with 3.2 μM mitoxantrone", "setting": "S1-M1-3.2 cells; drug 80 μM", "result": "13 ± 2", "unit": "Per Cent"}, {"measurement": "Per Cent Survival Alone", "setting": "S1-M1-3.2 cells; drug 80 μM alone", "result": "13 ± 1", "unit": "Per Cent"}, {"measurement": "Difference Score", "setting": "S1-M1-3.2 cells; drug 80 μM", "result": 0}, {"measurement": "reversal activity in S1-M1-3.2 cells (in words)", "setting": "S1-M1-3.2 cells; with mitoxantrone", "result": "not reversed"}, {"measurement": "potency relative to verapamil", "setting": "P-gp expressing cells", "result": "at least 10 fold"}]}
